In patent US20240246960A1 (adMare Therapeutics Society, priority 2021, published 2024):
Where two headings read alike, the source gives them in different places.

How the values were obtained:
[1] = Hepatocyte stability assay, mouse hepatocytes; format: in vitro ADME; details: for hepatocyte CLint at 1 uM: male, CD-1, mouse, cryopreserved hepatocytes, pH 7.3, 0.7 million cells per mL, 1 uM compound
Outline: (§1)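 Pooled cryopreserved hepatocytes (male CD-1 mouse, or mixed-gender human donors; ≥10 each) at 0.7 million viable cells/mL in Krebs-Henseleit buffer pH 7.3, with 1 uM compound (≤0.01% DMSO). Incubated up to 2 h at 37 °C/5% CO2, quenched with acetonitrile; parent compound followed by HPLC-MS/MS peak area.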

[2] = target: T1, pDNA-PK ser2056 induction in HCT116 spheroids (Homo sapiens, UniProt P78527); assay: Multicellular tumour spheroid + radiation, pDNA-PK inhibition, HCT116; format: cell-based; details: 20 Gy, 20% O2
T1 construct: endogenous in cells; host or cells: HCT116 multicellular tumour spheroids
Outline: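 HCT116 spheroids (~0.5 mm) in MEM/10% FBS/10 mM glucose, 20% O2, 37 °C, pre-incubated 1 h with compound (10 or 5 μM down to 3.5 nM), irradiated 20 Gy, incubated 2 h more. Cryosections immunostained for pDNA-PK ser2056; EC50 (μM) for 50% reduction of radiation-induced pDNA-PK.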

[3] = Hepatocyte stability assay, human hepatocytes; format: in vitro ADME; details: for hepatocyte CLint at 1 uM: both sexes, human, cryopreserved hepatocytes, pH 7.3, 0.7 million cells per mL, 1 uM compound
Outline: as §1

[4] = Microsomal stability assay, mouse liver microsomes; details: for microsomal CLint at 0.1 uM: male, CD-1, mouse, liver microsomes, pH 7.4, Microsomal Stability Mouse Clint, 0.1 mg/mL microsomes, 0.1 uM compound
[5] = Microsomal stability assay, human liver microsomes; format: in vitro ADME; details: for microsomal CLint at 0.1 uM: both sexes, human, liver microsomes, pH 7.4, 0.1 mg/mL microsomes, 0.1 uM compound
Method: Samples were then mixed and centrifuged. Supernatants were used for HPLC-MS/MS analysis. […] Peak areas corresponding to the test compound were recorded.

[6] = Example 7, spheroid, cell line HCT115 [sic], read-out: EC50 (pDNA-PK inhibition, immunohistochemical endpoint)
[7] = Example 9 Study 2, read-out: Spheroid Cell line: HCT116 Immunohistochemical endpoint pDNA-PK inhibition EC50

SMILES	Hepatocyte Stability (mouse) % rem. 120 min [1]	hepatocyte CLint at 1 uM [1]	EC50 [2, 6]	EC50 [2, 7]	Hepatocyte Stability (human) % rem. 120 min [3]	hepatocyte CLint at 1 uM [3]	Microsomal Stability (mouse) % rem. 60 min [4]	microsomal CLint at 0.1 uM [4]	Microsomal Stability (human) % rem. 60 min [5]	microsomal CLint at 0.1 uM [5]
CN(C)C(=O)c1cnc(N[C@H]2CC[C@@H](Oc3nc(N4CCOCC4)cc4ncccc34)CC2)nc1 [Compound 53, N,N-dimethyl-2-(((1s,4s)-4-((7-morpholino-1,6-naphthyridin-5-yl)oxy)cyclohexyl)amino)pyrimidine-5-carboxamide]	H (% remaining = 75-100%)	< 8.2 µL/min/1e6 cells	500 to 1000 nM	500 to 1000 nM	G (% remaining = 50-75%)	< 8.2 µL/min/1e6 cells				
c1cnc2cc(N3CCOCC3)nc(O[C@H]3CC[C@@H](Nc4ncnc5ccoc45)CC3)c2c1 [Compound 80a, N-((1s,4s)-4-((7-morpholino-1,6-naphthyridin-5-yl)oxy)cyclohexyl)furo[3,2-d]pyrimidin-4-amine]	F (% remaining = 25-50%)	> 8.2 µL/min/1e6 cells	10 to 500 nM	10 to 500 nM	G (% remaining = 50-75%)	< 8.2 µL/min/1e6 cells				
Cc1nc(N[C@H]2CC[C@@H](Oc3nc(N4CCOCC4)cc4ncccc34)CC2)c2occc2n1 [Compound 81, 2-methyl-N-((1s,4s)-4-((7-morpholino-1,6-naphthyridin-5-yl)oxy)cyclohexyl)furo[3,2-d]pyrimidin-4-amine]	F (% remaining = 25-50%)	> 8.2 µL/min/1e6 cells	500 to 1000 nM	500 to 1000 nM	G (% remaining = 50-75%)	< 8.2 µL/min/1e6 cells				
c1cnc2cc(N3CCOCC3)nc(O[C@H]3CC[C@@H](Nc4ncnc5occc45)CC3)c2c1 [Compound 82, N-((1s,4s)-4-((7-morpholino-1,6-naphthyridin-5-yl)oxy)cyclohexyl)furo[2,3-d]pyrimidin-4-amine]	E (% remaining = 0-25%)	> 8.2 µL/min/1e6 cells	10 to 500 nM	10 to 500 nM	F (% remaining = 25-50%)	> 8.2 µL/min/1e6 cells				
c1cnc2cc(N3CCOCC3)nc(O[C@H]3CC[C@@H](Nc4ncnc5ccsc45)CC3)c2c1 [Compound 83, N-((1s,4s)-4-((7-morpholino-1,6-naphthyridin-5-yl)oxy)cyclohexyl)thieno[3,2-d]pyrimidin-4-amine]	F (% remaining = 25-50%)	> 8.2 µL/min/1e6 cells	10 to 500 nM	10 to 500 nM	E (% remaining = 0-25%)	> 8.2 µL/min/1e6 cells				
c1cnc2cc(N3CCOCC3)nc(O[C@H]3CC[C@@H](Nc4ncc5sccc5n4)CC3)c2c1 [Compound 84, N-((1s,4s)-4-((7-Morpholino-1,6-naphthyridin-5-yl)oxy)cyclohexyl)thieno[3,2-d]pyrimidin-2-amine]	F (% remaining = 25-50%)	> 8.2 µL/min/1e6 cells	500 to 1000 nM	500 to 1000 nM	F (% remaining = 25-50%)	> 8.2 µL/min/1e6 cells				
c1cnc2cc(N3CCOCC3)nc(O[C@H]3CC[C@@H](Nc4ncc5[nH]ccc5n4)CC3)c2c1 [Compound 85, N-((1s,4s)-4-((7-Morpholino-1,6-naphthyridin-5-yl)oxy)cyclohexyl)-5H-pyrrolo[3,2-d]pyrimidin-2-amine]	E (% remaining = 0-25%)	> 8.2 µL/min/1e6 cells	10 to 500 nM	10 to 500 nM	E (% remaining = 0-25%)	> 8.2 µL/min/1e6 cells				
Cn1ccc2nc(N[C@H]3CC[C@@H](Oc4nc(N5CCOCC5)cc5ncccc45)CC3)ncc21 [Compound 87, 5-Methyl-N-((1s,4s)-4-((7-morpholino-1,6-naphthyridin-5-yl)oxy)cyclohexyl)-5H-pyrrolo[3,2-d]pyrimidin-2-amine]	F (% remaining = 25-50%)	> 8.2 µL/min/1e6 cells	10 to 500 nM	10 to 500 nM	G (% remaining = 50-75%)	< 8.2 µL/min/1e6 cells				
Cn1cnc2cnc(N[C@H]3CC[C@@H](Oc4nc(N5CCOCC5)cc5ncccc45)CC3)nc21 [Compound 88, 9-Methyl-N-((1s,4s)-4-((7-morpholino-1,6-naphthyridin-5-yl)oxy)cyclohexyl)-9H-purin-2-amine]	E (% remaining = 0-25%)	> 8.2 µL/min/1e6 cells	10 to 500 nM	10 to 500 nM	E (% remaining = 0-25%)	> 8.2 µL/min/1e6 cells				
c1cnc2cc(N3CCOCC3)nc(O[C@H]3CC[C@@H](Nc4ccn5nccc5n4)CC3)c2c1 [Compound 89, N-((1s,4s)-4-((7-Morpholino-1,6-naphthyridin-5-yl)oxy)cyclohexyl)pyrazolo[1,5-a]pyrimidin-5-amine]	F (% remaining = 25-50%)	> 8.2 µL/min/1e6 cells	500 to 1000 nM	500 to 1000 nM	G (% remaining = 50-75%)	< 8.2 µL/min/1e6 cells				
O=C(N[C@H]1CC[C@@H](Oc2nc(N3CCOCC3)cc3ncccc23)CC1)c1ccncc1 [Compound 113, N-((1s,4s)-4-((7-morpholino-1,6-naphthyridin-5-yl)oxy)cyclohexyl)isonicotinamide]	G (% remaining = 50-75%)	< 8.2 µL/min/1e6 cells	500 to 1000 nM	500 to 1000 nM	G (% remaining = 50-75%)	< 8.2 µL/min/1e6 cells	F (% remaining = 25-50%)	> 116 µL/min/mg	F (% remaining = 25-50%)	> 116 µL/min/mg
O=C(N[C@H]1CC[C@@H](Oc2nc(N3CCOCC3)cc3ncccc23)CC1)c1ccnnc1 [Compound 121, N-((1s,4s)-4-((7-morpholino-1,6-naphthyridin-5-yl)oxy)cyclohexyl)pyridazine-4-carboxamide]	G (% remaining = 50-75%)	< 8.2 µL/min/1e6 cells	1000 to 10000 nM	1000 to 10000 nM	G (% remaining = 50-75%)	< 8.2 µL/min/1e6 cells	H (% remaining = 75-100%)	< 116 µL/min/mg	G (% remaining = 50-75%)	< 116 µL/min/mg
COc1cnc(N[C@H]2CC[C@@H](Oc3nc(N4CCOCC4)cc4ncc(NS(C)(=O)=O)cc34)CC2)nc1 [Compound 203, N-(5-(((1s,4s)-4-((5-methoxypyrimidin-2-yl)amino)cyclohexyl)oxy)-7-morpholino-1,6-naphthyridin-3-yl)methanesulfonamide]	F (% remaining = 25-50%)	< 8.2 µL/min/1e6 cells	10 to 500 nM	10 to 500 nM	G (% remaining = 50-75%)	< 8.2 µL/min/1e6 cells				
CS(=O)(=O)Nc1cnc2cc(N3CCOCC3)nc(O[C@H]3CC[C@@H](NC(=O)c4ncco4)CC3)c2c1 [Compound 205, N-((1s,4s)-4-((3-(methylsulfonamido)-7-morpholino-1,6-naphthyridin-5-yl)oxy)cyclohexyl)oxazole-2-carboxamide]	H (% remaining = 75-100%)	< 8.2 µL/min/1e6 cells	1000 to 10000 nM	1000 to 10000 nM	H (% remaining = 75-100%)	< 8.2 µL/min/1e6 cells				
